Measured values from PMC11480411, “Mucosal sugars delineate pyrazine vs pyrazinone autoinducer signaling in Klebsiella oxytoca” (Nature Communications, 2024).

Key:
Test in all cases: PRESTO-Tango GPCR screen
Format in all cases: cell-based
Conditions in all cases: 100 µM
S1PR1 = target: T1, S1PR1 (Homo sapiens, UniProt P21453)
T1 construct: purchased PRESTO-Tango GPCR kit (Roth lab / Addgene)
Experimental: (§1) The PRESTO-Tango analyses were performed as previously published. Briefly, HTLA cells, a HEK293 cell line that stably expresses β-arrestin-TEV and tTA-Luciferase (a kind gift from Gilad Barnea, Brown University), were plated in 96-well tissue culture plates (Eppendorf) in DMEM containing 10% FBS and 1% Penicillin/Streptomycin. One day after plating (after reaching approximately 90% confluence), 200 ng per well GPCR-Tango plasmids[37] in 20 μL DMEM were individually mixed with 400 ng polyethylenimine (Polysciences) in an equal volume of DMEM and incubated for 20 min at room temperature before adding the transfection mixture to the HTLA cells. 16-24 h after transfection, medium was replaced with 180 μL fresh DMEM containing 1% Penicillin/Streptomycin and 10 mM HEPES and 20 μL of 3 or 3-Homo to reach a final concentration of 100 μM. Supernatants were aspirated 20 h after stimulation and 50 μl per well of Bright-Glo solution (Promega) diluted 20-fold with PBS containing 20 mM HEPES was added into each well. After 15 min incubation at room temperature, luminescence was quantified using a Spectramax i3x microplate reader (Molecular Devices). Activation fold for each sample was calculated by dividing relative luminescence units (RLU) for each condition by RLUs from PBS control. Dose response curves of each chemical were performed in a similar way with varying the ligand concentration from 10^−4 M to 10^−15 M.

MRGPRG = target: T2, MRGPRG (Homo sapiens, UniProt Q86SM5)
T2 construct: purchased PRESTO-Tango GPCR kit (Roth lab / Addgene)
Experimental: as §1

GPR37 = target: T3, GPR37 (Homo sapiens, UniProt O15354)
T3 construct: purchased PRESTO-Tango GPCR kit (Roth lab / Addgene)
Experimental: as §1

GPR52 = target: T4, GPR52 (Homo sapiens, UniProt Q9Y2T5)
T4 construct: purchased PRESTO-Tango GPCR kit (Roth lab / Addgene)
Experimental: as §1

GPR27 = target: T5, GPR27 (Homo sapiens, UniProt Q9NS67)
T5 construct: purchased PRESTO-Tango GPCR kit (Roth lab / Addgene)
Experimental: as §1

P2RY10 = target: T6, P2RY10 (Homo sapiens, UniProt O00398)
T6 construct: purchased PRESTO-Tango GPCR kit (Roth lab / Addgene)
Experimental: as §1

GPRC5C = target: T7, GPRC5C (Homo sapiens, UniProt Q9NQ84)
T7 construct: purchased PRESTO-Tango GPCR kit (Roth lab / Addgene)
Experimental: as §1

HTR7 = target: T8, HTR7 (Homo sapiens, UniProt P34969)
T8 construct: purchased PRESTO-Tango GPCR kit (Roth lab / Addgene)
Experimental: as §1

SUCNR1 = target: T9, SUCNR1 (Homo sapiens, UniProt Q9BXA5)
T9 construct: purchased PRESTO-Tango GPCR kit (Roth lab / Addgene)
Experimental: as §1

GPR116 = target: T10, GPR116 (Homo sapiens, UniProt Q8IZF2)
T10 construct: purchased PRESTO-Tango GPCR kit (Roth lab / Addgene)
Experimental: as §1

CALCRb = target: T11, CALCRb (Homo sapiens, UniProt P30988)
T11 construct: purchased PRESTO-Tango GPCR kit (Roth lab / Addgene)
Experimental: as §1

TAAR9 = target: T12, TAAR9 (Homo sapiens, UniProt Q96RI9)
T12 construct: purchased PRESTO-Tango GPCR kit (Roth lab / Addgene)
Experimental: as §1

GPR39 = target: T13, GPR39 (Homo sapiens, UniProt O43194)
T13 construct: purchased PRESTO-Tango GPCR kit (Roth lab / Addgene)
Experimental: as §1

P2RY6 = target: T14, P2RY6 (Homo sapiens, UniProt Q15077)
T14 construct: purchased PRESTO-Tango GPCR kit (Roth lab / Addgene)
Experimental: as §1

FFA1 = target: T15, FFA1 (Homo sapiens, UniProt O14842)
T15 construct: purchased PRESTO-Tango GPCR kit (Roth lab / Addgene)
Experimental: as §1

GPR75 = target: T16, GPR75 (Homo sapiens, UniProt O95800)
T16 construct: purchased PRESTO-Tango GPCR kit (Roth lab / Addgene)
Experimental: as §1

BDKBR1 = target: T17, BDKBR1 (Homo sapiens, UniProt P46663)
T17 construct: purchased PRESTO-Tango GPCR kit (Roth lab / Addgene)
Experimental: as §1

GPRC5D = target: T18, GPRC5D (Homo sapiens, UniProt Q9NZD1)
T18 construct: purchased PRESTO-Tango GPCR kit (Roth lab / Addgene)
Experimental: as §1

CCR7 = target: T19, CCR7 (Homo sapiens, UniProt P32248)
T19 construct: purchased PRESTO-Tango GPCR kit (Roth lab / Addgene)
Experimental: as §1

GAL3 = target: T20, GAL3 (Homo sapiens, UniProt O60755)
T20 construct: purchased PRESTO-Tango GPCR kit (Roth lab / Addgene)
Experimental: as §1

CCKAR = target: T21, CCKAR (Homo sapiens, UniProt P32238)
T21 construct: purchased PRESTO-Tango GPCR kit (Roth lab / Addgene)
Experimental: as §1

GPR25 = target: T22, GPR25 (Homo sapiens, UniProt O00155)
T22 construct: purchased PRESTO-Tango GPCR kit (Roth lab / Addgene)
Experimental: as §1

GPR115 = target: T23, GPR115 (Homo sapiens, UniProt Q8IZF3)
T23 construct: purchased PRESTO-Tango GPCR kit (Roth lab / Addgene)
Experimental: as §1

GHRHR = target: T24, GHRHR (Homo sapiens, UniProt Q02643)
T24 construct: purchased PRESTO-Tango GPCR kit (Roth lab / Addgene)
Experimental: as §1

BB3 = target: T25, BB3 (Homo sapiens, UniProt P32247)
T25 construct: purchased PRESTO-Tango GPCR kit (Roth lab / Addgene)
Experimental: as §1

FPR3 = target: T26, FPR3 (Homo sapiens, UniProt P25089)
T26 construct: purchased PRESTO-Tango GPCR kit (Roth lab / Addgene)
Experimental: as §1

P2RY4 = target: T27, P2RY4 (Homo sapiens, UniProt P51582)
T27 construct: purchased PRESTO-Tango GPCR kit (Roth lab / Addgene)
Experimental: as §1

GPR173 = target: T28, GPR173 (Homo sapiens, UniProt Q9NS66)
T28 construct: purchased PRESTO-Tango GPCR kit (Roth lab / Addgene)
Experimental: as §1

ADRB2 = target: T29, ADRB2 (Homo sapiens, UniProt P07550)
T29 construct: purchased PRESTO-Tango GPCR kit (Roth lab / Addgene)
Experimental: as §1

S1PR2 = target: T30, S1PR2 (Homo sapiens, UniProt O95136)
T30 construct: purchased PRESTO-Tango GPCR kit (Roth lab / Addgene)
Experimental: as §1

C3AR1 = target: T31, C3AR1 (Homo sapiens, UniProt Q16581)
T31 construct: purchased PRESTO-Tango GPCR kit (Roth lab / Addgene)
Experimental: as §1

GPR135 = target: T32, GPR135 (Homo sapiens, UniProt Q8IZ08)
T32 construct: purchased PRESTO-Tango GPCR kit (Roth lab / Addgene)
Experimental: as §1

GPR32 = target: T33, GPR32 (Homo sapiens, UniProt O75388)
T33 construct: purchased PRESTO-Tango GPCR kit (Roth lab / Addgene)
Experimental: as §1

GPR65 = target: T34, GPR65 (Homo sapiens, UniProt Q8IYL9)
T34 construct: purchased PRESTO-Tango GPCR kit (Roth lab / Addgene)
Experimental: as §1

P2RY8 = target: T35, P2RY8 (Homo sapiens, UniProt Q86VZ1)
T35 construct: purchased PRESTO-Tango GPCR kit (Roth lab / Addgene)
Experimental: as §1

GPR156 = target: T36, GPR156 (Homo sapiens, UniProt Q8NFN8)
T36 construct: purchased PRESTO-Tango GPCR kit (Roth lab / Addgene)
Experimental: as §1

T29 sequence (P07550 whole entry): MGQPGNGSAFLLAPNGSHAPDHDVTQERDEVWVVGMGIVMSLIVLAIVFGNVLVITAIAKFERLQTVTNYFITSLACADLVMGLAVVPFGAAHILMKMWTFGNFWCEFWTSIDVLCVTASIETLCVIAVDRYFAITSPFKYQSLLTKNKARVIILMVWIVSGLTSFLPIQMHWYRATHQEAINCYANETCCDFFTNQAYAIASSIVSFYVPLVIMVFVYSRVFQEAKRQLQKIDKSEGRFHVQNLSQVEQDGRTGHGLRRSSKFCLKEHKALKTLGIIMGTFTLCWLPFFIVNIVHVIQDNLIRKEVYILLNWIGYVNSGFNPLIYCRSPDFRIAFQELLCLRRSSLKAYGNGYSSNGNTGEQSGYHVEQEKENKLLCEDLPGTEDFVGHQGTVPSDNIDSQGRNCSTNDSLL
T8 sequence (P34969 whole entry): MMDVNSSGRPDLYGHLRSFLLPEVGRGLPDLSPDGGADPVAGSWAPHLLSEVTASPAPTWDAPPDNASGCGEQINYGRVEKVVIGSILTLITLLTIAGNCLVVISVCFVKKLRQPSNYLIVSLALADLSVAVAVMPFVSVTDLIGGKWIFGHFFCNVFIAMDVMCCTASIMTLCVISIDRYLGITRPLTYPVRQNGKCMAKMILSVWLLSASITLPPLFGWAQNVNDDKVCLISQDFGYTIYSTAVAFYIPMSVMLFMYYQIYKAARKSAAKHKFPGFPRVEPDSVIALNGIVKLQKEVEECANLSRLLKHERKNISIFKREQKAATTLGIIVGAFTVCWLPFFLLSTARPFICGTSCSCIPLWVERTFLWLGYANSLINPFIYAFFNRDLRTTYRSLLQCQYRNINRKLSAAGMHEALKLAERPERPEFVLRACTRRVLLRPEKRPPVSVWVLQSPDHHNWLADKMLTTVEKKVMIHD
T35 sequence (Q86VZ1 whole entry): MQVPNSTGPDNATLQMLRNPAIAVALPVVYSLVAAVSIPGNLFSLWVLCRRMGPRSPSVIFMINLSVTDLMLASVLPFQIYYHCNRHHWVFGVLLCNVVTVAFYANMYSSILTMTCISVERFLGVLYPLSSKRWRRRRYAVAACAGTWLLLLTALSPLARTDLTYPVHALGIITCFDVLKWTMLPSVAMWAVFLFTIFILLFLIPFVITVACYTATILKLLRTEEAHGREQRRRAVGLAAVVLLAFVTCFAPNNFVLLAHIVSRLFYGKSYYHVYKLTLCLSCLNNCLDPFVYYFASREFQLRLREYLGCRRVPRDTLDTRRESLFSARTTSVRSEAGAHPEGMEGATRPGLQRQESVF
T36 sequence (Q8NFN8 whole entry): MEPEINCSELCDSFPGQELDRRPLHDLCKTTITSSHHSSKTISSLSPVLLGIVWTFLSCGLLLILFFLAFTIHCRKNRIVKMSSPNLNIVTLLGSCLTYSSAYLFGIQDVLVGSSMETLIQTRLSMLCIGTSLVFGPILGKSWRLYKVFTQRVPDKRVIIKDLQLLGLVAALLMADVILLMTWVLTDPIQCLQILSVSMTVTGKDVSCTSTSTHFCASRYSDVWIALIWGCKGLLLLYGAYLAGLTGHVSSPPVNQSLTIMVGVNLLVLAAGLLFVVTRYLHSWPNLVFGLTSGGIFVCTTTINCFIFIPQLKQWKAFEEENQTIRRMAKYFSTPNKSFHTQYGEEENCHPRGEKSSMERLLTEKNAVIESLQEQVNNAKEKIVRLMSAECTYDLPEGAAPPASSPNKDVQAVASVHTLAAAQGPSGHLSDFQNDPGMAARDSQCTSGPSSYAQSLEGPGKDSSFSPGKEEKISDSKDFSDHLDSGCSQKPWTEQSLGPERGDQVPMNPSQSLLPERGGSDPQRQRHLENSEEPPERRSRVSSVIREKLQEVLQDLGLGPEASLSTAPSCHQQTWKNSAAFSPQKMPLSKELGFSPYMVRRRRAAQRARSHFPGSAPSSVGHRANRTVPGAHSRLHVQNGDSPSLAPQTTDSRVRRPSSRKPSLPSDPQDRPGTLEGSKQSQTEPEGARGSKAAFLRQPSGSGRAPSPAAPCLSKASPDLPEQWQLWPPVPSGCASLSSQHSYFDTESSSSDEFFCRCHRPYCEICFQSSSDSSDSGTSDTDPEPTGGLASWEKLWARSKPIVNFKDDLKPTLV
T1 sequence (P21453 whole entry): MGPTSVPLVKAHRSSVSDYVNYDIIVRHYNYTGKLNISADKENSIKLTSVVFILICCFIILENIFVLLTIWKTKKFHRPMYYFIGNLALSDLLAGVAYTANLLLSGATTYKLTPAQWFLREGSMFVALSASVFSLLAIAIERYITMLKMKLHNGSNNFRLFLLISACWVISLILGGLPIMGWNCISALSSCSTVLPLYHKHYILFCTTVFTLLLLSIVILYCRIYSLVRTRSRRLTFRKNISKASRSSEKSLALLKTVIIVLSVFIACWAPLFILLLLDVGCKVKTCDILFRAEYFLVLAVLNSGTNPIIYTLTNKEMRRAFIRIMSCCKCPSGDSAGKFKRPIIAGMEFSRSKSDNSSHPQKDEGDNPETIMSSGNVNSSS
T7 sequence (Q9NQ84 24-441): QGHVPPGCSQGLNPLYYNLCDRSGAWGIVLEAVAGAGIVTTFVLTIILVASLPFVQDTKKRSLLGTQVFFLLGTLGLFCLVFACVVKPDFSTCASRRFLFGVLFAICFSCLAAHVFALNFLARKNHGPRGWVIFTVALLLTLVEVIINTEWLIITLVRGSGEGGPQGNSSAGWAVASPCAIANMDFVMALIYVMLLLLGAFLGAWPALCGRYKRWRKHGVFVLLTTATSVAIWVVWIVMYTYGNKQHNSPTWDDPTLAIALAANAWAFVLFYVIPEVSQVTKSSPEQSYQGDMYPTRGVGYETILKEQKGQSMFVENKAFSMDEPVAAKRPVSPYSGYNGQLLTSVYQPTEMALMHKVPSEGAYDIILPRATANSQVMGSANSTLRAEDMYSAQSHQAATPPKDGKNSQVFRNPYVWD
T25 sequence (P32247 whole entry): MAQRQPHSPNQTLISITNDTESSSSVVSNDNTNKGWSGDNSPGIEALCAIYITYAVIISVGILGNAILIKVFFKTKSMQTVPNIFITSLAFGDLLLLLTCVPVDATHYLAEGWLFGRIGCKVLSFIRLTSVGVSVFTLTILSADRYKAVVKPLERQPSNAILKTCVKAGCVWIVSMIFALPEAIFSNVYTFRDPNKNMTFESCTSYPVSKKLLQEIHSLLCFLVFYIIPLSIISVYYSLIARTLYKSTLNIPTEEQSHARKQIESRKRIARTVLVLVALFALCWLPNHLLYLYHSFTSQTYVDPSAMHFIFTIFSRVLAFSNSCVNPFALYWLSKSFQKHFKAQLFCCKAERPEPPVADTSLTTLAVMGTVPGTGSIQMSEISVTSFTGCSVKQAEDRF
T21 sequence (P32238 whole entry): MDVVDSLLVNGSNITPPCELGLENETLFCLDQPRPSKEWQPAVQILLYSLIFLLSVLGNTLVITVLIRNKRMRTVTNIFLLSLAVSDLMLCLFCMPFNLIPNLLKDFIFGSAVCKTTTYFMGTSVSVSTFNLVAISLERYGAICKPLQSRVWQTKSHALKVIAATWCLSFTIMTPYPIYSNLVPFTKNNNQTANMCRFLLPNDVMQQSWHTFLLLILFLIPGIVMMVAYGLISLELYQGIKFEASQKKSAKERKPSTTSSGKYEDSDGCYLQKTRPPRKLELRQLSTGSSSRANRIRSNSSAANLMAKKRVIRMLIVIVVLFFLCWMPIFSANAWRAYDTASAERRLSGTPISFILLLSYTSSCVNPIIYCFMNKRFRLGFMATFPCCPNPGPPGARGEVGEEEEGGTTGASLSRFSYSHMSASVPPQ
T30 sequence (O95136 whole entry): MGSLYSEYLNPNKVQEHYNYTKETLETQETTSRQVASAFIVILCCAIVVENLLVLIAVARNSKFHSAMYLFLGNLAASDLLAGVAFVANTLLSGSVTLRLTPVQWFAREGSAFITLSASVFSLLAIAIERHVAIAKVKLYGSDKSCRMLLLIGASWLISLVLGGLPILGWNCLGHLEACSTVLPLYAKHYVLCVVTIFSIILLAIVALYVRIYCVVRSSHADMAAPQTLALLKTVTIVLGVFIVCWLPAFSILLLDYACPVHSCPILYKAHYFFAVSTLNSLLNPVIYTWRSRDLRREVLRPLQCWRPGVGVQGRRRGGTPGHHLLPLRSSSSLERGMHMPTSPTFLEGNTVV
T26 sequence (P25089 whole entry): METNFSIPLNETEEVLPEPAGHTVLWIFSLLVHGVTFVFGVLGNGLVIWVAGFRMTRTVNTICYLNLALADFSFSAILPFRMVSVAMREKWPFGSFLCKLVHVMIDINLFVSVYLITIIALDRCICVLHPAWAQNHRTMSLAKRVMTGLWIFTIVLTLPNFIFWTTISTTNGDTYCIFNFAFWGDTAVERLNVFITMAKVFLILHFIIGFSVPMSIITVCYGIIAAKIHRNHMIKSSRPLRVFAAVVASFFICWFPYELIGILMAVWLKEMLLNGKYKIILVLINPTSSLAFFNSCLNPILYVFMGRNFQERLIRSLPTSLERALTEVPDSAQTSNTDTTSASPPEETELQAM
T16 sequence (O95800 whole entry): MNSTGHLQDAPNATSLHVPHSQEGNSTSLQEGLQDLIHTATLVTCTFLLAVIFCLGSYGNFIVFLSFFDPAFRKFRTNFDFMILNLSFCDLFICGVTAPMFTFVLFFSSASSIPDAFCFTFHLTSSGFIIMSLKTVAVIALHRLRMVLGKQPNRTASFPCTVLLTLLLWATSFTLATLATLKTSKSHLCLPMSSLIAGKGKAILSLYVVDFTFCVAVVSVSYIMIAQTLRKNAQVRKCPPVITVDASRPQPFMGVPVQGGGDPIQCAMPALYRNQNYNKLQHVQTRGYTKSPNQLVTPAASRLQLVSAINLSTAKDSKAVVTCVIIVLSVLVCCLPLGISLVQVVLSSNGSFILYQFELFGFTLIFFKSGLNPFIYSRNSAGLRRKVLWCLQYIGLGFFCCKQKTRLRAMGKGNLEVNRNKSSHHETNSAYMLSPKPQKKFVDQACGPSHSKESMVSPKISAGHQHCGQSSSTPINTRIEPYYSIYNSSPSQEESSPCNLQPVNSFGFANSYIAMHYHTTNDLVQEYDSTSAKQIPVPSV

SMILES	GPCR activation (heatmap value) (S1PR1)	GPCR activation (heatmap value) (MRGPRG)	GPCR activation (heatmap value) (GPR37)	GPCR activation (heatmap value) (GPR52)	GPCR activation (heatmap value) (GPR27)	GPCR activation (heatmap value) (P2RY10)	GPCR activation (heatmap value) (GPRC5C)	GPCR activation (heatmap value) (HTR7)	GPCR activation (heatmap value) (SUCNR1)	GPCR activation (heatmap value) (GPR116)	GPCR activation (heatmap value) (CALCRb)	GPCR activation (heatmap value) (TAAR9)	GPCR activation (heatmap value) (GPR39)	GPCR activation (heatmap value) (P2RY6)	GPCR activation (heatmap value) (FFA1)	GPCR activation (heatmap value) (GPR75)	GPCR activation (heatmap value) (BDKBR1)	GPCR activation (heatmap value) (GPRC5D)	GPCR activation (heatmap value) (CCR7)	GPCR activation (heatmap value) (GAL3)	further results
CC(C)Cc1ncc(CCCCNC(=N)N)[nH]c1=O [3-Homo]	-0.03733	-0.5195	-0.008314	0.2473	-0.5119	-0.398	0.07279	0.09912	-0.1091	-0.4317	-1.592	-0.5012	0.5643	-0.2248	-0.171	0.5978	-0.9993	0.05555	-1.001	0.4523	GPCR activation (heatmap value) (CCKAR): 0.3945; GPCR activation (heatmap value) (GPR25): -0.6766; GPCR activation (heatmap value) (GPR115): -0.2915; GPCR activation (heatmap value) (GHRHR): 0.5021; GPCR activation (heatmap value) (BB3): -0.2556; GPCR activation (heatmap value) (FPR3): 0.135; GPCR activation (heatmap value) (P2RY4): 0.7408; GPCR activation (heatmap value) (GPR173): -0.8728; GPCR activation (heatmap value) (ADRB2): -0.1039; GPCR activation (heatmap value) (S1PR2): -0.09813; GPCR activation (heatmap value) (C3AR1): -0.001199; GPCR activation (heatmap value) (GPR135): -0.1206; GPCR activation (heatmap value) (GPR32): -0.1389; GPCR activation (heatmap value) (GPR65): 0.1433; GPCR activation (heatmap value) (P2RY8): 0.2867; GPCR activation (heatmap value) (GPR156): 0.2712
CC(C)Cc1ncc(CCCNC(=N)N)[nH]c1=O [compound 3]	-0.122	-0.5206	-0.4356	0.9036	0.1426	-0.2181	0.188	-0.07329	0.1336	-0.4037	-0.6231	-0.2146	0.8238	0.4506	-0.7235	-1.251	-0.1783	-1.121	-2.336	0.02852	GPCR activation (heatmap value) (CCKAR): 0.06622; GPCR activation (heatmap value) (GPR25): -0.8885; GPCR activation (heatmap value) (GPR115): 0.3053; GPCR activation (heatmap value) (GHRHR): 0.3749; GPCR activation (heatmap value) (BB3): 0.3176; GPCR activation (heatmap value) (FPR3): 0.01401; GPCR activation (heatmap value) (P2RY4): 0.7544; GPCR activation (heatmap value) (GPR173): -0.2495; GPCR activation (heatmap value) (ADRB2): 0.6209; GPCR activation (heatmap value) (S1PR2): 0.5246; GPCR activation (heatmap value) (C3AR1): -0.2058; GPCR activation (heatmap value) (GPR135): -1.115; GPCR activation (heatmap value) (GPR32): 0.07937; GPCR activation (heatmap value) (GPR65): -0.2267; GPCR activation (heatmap value) (P2RY8): 0.4444; GPCR activation (heatmap value) (GPR156): 0.1542
